The target of this assay is T1, human κ opioid receptors (Homo sapiens, UniProt P41145).
T1 construct: host or cells: CHO cells
Kind of assay: Opioid receptor function test (Lance Ultra cAMP kit, agonist activity). The conditions noted are these: CHO cells expressing human κ opioid receptors, 10 μM forskolin, 30 minutes. It is filed as cell-based. The protocol:
Opioid Receptor Function Test
The function activity of the compound of the present invention on κ opioid receptors was examined.
Method: Using a Lance Ultra cAMP kit (Perkin Elmer), the examination was performed according to a predetermined method. In evaluation of agonist activity, CHO cells expressing human κ opioid receptors (Catalog No. CT6606, accession No. NM_000912) and a test compound were reacted in an assay buffer (1×HSS, 5 mM HEPES, pH 7.4, 0.5 mM IBMX (isobutylmethyixanthine), 0.1% SA) in the presence of 10 μM forskolin for 30 minutes. Subsequently, a cAMP detection reagent in the kit was added. One hour later, time-resolved fluorescence measurement was performed using an EnVision plate reader (Perkin Elmer). The evaluation of the test compound was performed in a concentration range of 10^−14 to 10^−7 M for the κ opioid receptor function test.

Experimental findings from patent US20230087342A1, “AZEPANE DERIVATIVE” (Nippon Chemiphar Co., Ltd., priority 2019, published 2023) are described below.

T1 sequence (P41145 whole entry): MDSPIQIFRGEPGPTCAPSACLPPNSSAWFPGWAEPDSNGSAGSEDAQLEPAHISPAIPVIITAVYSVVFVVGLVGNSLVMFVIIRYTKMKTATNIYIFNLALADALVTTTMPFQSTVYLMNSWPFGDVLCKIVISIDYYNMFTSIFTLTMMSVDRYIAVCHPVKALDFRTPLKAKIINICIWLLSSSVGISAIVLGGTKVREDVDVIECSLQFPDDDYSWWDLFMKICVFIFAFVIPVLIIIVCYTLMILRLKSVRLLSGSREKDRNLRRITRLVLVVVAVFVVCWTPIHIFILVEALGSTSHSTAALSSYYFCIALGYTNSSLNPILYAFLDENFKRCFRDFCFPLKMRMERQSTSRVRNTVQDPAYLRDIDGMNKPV

For orientation: EC50 means the concentration needed to bring the measured effect to its halfway point. Low values mean greater potency, high ones weaker potency. In turn, `CCc1cnn(CCN2CC[C@]34CCN(CC5CC5)[C@H](Cc5ccc(O)cc53)[C@]4(O)CC2)c1` [Example 193, (5aS,6R,11bS)-14-(cyclopropylmethyl)-3-(2-(4-ethyl-1H-pyrazol-1-yl)ethyl)-2,3,4,5,6,7-hexahydro-6,11b-(epiminoethano)naphtho[1,2-d]azepine-5a,10(1H)-diol] came in with an EC50 of 35 pM.

For the molecule `Oc1ccc2c(c1)[C@@]13CCN(CCN4CCc5ccccc54)CC[C@@]1(O)[C@@H](C2)N(CC1CC1)CC3` [Example 126, (5aS,6R,11bS)-14-(cyclopropylmethyl)-3-(2-(indolin-1-yl)ethyl)-2,3,4,5,6,7-hexahydro-6,11b-(epiminoethano)naphtho[1,2-d]azepine-5a,10(1H)-diol], the EC50 amounted to 740 pM.

Molecule `Cc1cc2c(cc1O)[C@@]13CCN(C(=O)CN4CC[C@@H](C)C4)CC[C@@]1(O)[C@@H](C2)N(CC1CC1)CC3` [Example 336, 1-((5aS,6R,11bR)-14-(cyclopropylmethyl)-5a,10-dihydroxy-9-methyl-1,2,5,5a,6,7-hexahydro-6,11b-(epiminoethano)naphtho[1,2-d]azepin-3(4H)-yl)-2-((R)-3-methylpyrrolidin-1-yl)ethan-1-one] displayed an EC50 of 180 pM.

With `Oc1ccc2c(c1)[C@@]13CCN(CCc4ncccn4)CC[C@@]1(O)[C@@H](C2)N(CC1CC1)CC3` [Example 83, (5aS,6R,11bS)-14-(cyclopropylmethyl)-3-(2-(pyrimidin-2-yl)ethyl)-2,3,4,5,6,7-hexahydro-6,11b-(epiminoethano)naphtho[1,2-d]azepine-5a,10(1H)-diol], the EC50 was found to be 370 pM.

The molecule `Cn1nc(CCN2CC[C@]34CCN(CC5CC5)[C@H](Cc5ccc(O)cc53)[C@]4(O)CC2)c2ccccc21` [Example 113, (5aS,6R,11bS)-14-(cyclopropylmethyl)-3-(2-(1-methyl-1H-indazol-3-yl)ethyl)-2,3,4,5,6,7-hexahydro-6,11b-(epiminoethano)naphtho[1,2-d]azepine-5a,10(1H)-diol] came in with an EC50 of 560 pM.

Consider `Oc1ccc2c(c1)[C@@]13CCN(CCc4cc[nH]n4)CC[C@@]1(O)[C@@H](C2)N(CC1CC1)CC3` [Example 27, (5aS,6R,11bS)-3-(2-(1H-pyrazol-3-yl)ethyl)-14-(cyclopropylmethyl)-2,3,4,5,6,7-hexahydro-6,11b-(epiminoethano)naphtho[1,2-d]azepine-5a,10(1H)-diol], for which the response was half-maximal at 130 pM (EC50).

With `Oc1ccc2c(c1)[C@@]13CCN(CCc4ncccc4F)CC[C@@]1(O)[C@@H](C2)N(CC1CC1)CC3` [Example 100, (5aS,6R,11bS)-14-(cyclopropylmethyl)-3-(2-(3-fluoropyridin-2-yl)ethyl)-2,3,4,5,6,7-hexahydro-6,11b-(epiminoethano)naphtho[1,2-d]azepine-5a,10(1H)-diol], it took 260 pM to reach a half-maximal effect (EC50).

`C[Si]1(C)CCN(CCN2CC[C@]34CCN(CC5CC5)[C@H](Cc5ccc(O)cc53)[C@]4(O)CC2)CC1` [Example 133, (5aS,6R,11bS)-14-(cyclopropylmethyl)-3-(2-(4,4-dimethyl-1,4-azasilinan-1-yl)ethyl)-2,3,4,5,6,7-hexahydro-6,11b-(epiminoethano)naphtho[1,2-d]azepine-5a,10(1H)-diol] had an EC50 of 33 pM.

For `NC(=O)c1ccc2c(c1)[C@@]13CCN(C(=O)Cc4n[nH]c5ccccc45)CC[C@@]1(O)[C@@H](C2)N(CC1CC1)CC3` [Example 265, (5aS,6R,11bR)-3-(2-(1H-indazol-3-yl)acetyl)-14-(cyclopropylmethyl)-5a-hydroxy-1,2,3,4,5,5a,6,7-octahydro-6,11b-(epiminoethano)naphtho[1,2-d]azepine-10-carboxamide], a half-maximal effect (EC50) was put at 120 pM.

For `Oc1ccc2c(c1)[C@@]13CCN(CCc4ccsn4)CC[C@@]1(O)[C@@H](C2)N(CC1CC1)CC3` [Example 209, (5aS,6R,11bS)-14-(cyclopropylmethyl)-3-(2-(isothiazol-3-yl)ethyl)-2,3,4,5,6,7-hexahydro-6,11b-(epiminoethano)naphtho[1,2-d]azepine-5a,10(1H)-diol], a half-maximal effect (EC50) was put at 50 pM.

Molecule `Oc1ccc2c(c1)[C@]13CCN(CC4CC4)[C@H](C2)[C@]1(O)CCCN(CCc1ccccn1)C3` [Example 137, (5aS,6R,11bS)-14-(cyclopropylmethyl)-2-(2-(pyridin-2-yl)ethyl)-2,3,4,5,6,7-hexahydro-6,11b-(epiminoethano)naphtho[1,2-c]azepine-5a,10(1H)-diol] returned an EC50 of 140 pM.

For the molecule `Cc1cnn(CCN2CC[C@]34CCN(CC5CC5(F)F)[C@H](Cc5ccc(O)cc53)[C@]4(O)CC2)c1` (stereo partly drawn) [Example 218, (5aS,6R,11bS)-14-((2,2-difluorocyclopropyl)methyl)-3-(2-(4-methyl-1H-pyrazol-1-yl)ethyl)-2,3,4,5,6,7-hexahydro-6,11b-(epiminoethano)naphtho[1,2-d]azepine-5a,10(1H)-diol], the EC50 was determined as 160 pM.

`O=C(CCc1nccs1)N1CC[C@]23CCN(CC4CC4)[C@H](Cc4ccc(O)cc42)[C@]3(O)CC1` [Example 210, 1-((5aS,6R,11bR)-14-(cyclopropylmethyl)-5a,10-dihydroxy-1,2,5,5a,6,7-hexahydro-6,11b-(epiminoethano)naphtho[1,2-d]azepin-3(4H)-yl)-3-(thiazol-2-yl)propan-1-one] gave an EC50 of 720 pM.

The molecule `Oc1ccc2c(c1)[C@@]13CCN(CCCn4cc(C(F)(F)F)cn4)CC[C@@]1(O)[C@@H](C2)N(CC1CC1)CC3` [Example 179, (5aS,6R,11bS)-14-(cyclopropylmethyl)-3-(3-(4-(trifluoromethyl)-1H-pyrazol-1-yl)propyl)-2,3,4,5,6,7-hexahydro-6,11b-(epiminoethano)naphtho[1,2-d]azepine-5a,10(1H)-diol] displayed an EC50 of 24 pM.

Consider `N#Cc1cnn(CCN2CC[C@]34CCN(CC5CC5)[C@H](Cc5ccc(O)cc53)[C@]4(O)CC2)c1` [Example 189, 1-(2-((5aS,6R,11bS)-14-(cyclopropylmethyl)-5a,10-dihydroxy-1,2,5,5a,6,7-hexahydro-6,11b-(epiminoethano)naphtho[1,2-d]azepin-3(4H)-yl)ethyl)-1H-pyrazole-4-carbonitrile], for which the EC50 amounted to 390 pM.

On to `Oc1ccc2c(c1)[C@@]13CCN(CCn4cc(C(F)(F)F)cn4)CC[C@@]1(O)[C@@H](C2)N(CC1CC1)CC3` [Example 144, (5aS,6R,11bS)-14-(cyclopropylmethyl)-3-(2-(4-(trifluoromethyl)-1H-pyrazol-1-yl)ethyl)-2,3,4,5,6,7-hexahydro-6,11b-(epiminoethano)naphtho[1,2-d]azepine-5a,10(1H)-diol], for which the midpoint of the response, the EC50, lay at 19 pM.

Molecule `Cc1cnn(CCN2CC[C@]34CCN(CC5(O)CC5)[C@H](Cc5ccc(O)cc53)[C@]4(O)CC2)c1` [Example 225, (5aS,6R,11bS)-14-((1-hydroxycyclopropyl)methyl)-3-(2-(4-methyl-1H-pyrazol-1-yl)ethyl)-2,3,4,5,6,7-hexahydro-6,11b-(epiminoethano)naphtho[1,2-d]azepine-5a,10(1H)-diol] returned an EC50 of 110 pM.

`Cc1ccn(CCN2CC[C@]34CCN(CC5CC5)[C@H](Cc5ccc(O)cc53)[C@]4(O)CC2)n1` [Example 47, (5aS,6R,11bS)-14-(cyclopropylmethyl)-3-(2-(3-methyl-1H-pyrazol-1-yl)ethyl)-2,3,4,5,6,7-hexahydro-6,11b-(epiminoethano)naphtho[1,2-d]azepine-5a,10(1H)-diol] yielded an EC50 of 230 pM.

`O=C(Cn1nccc1O)N1CC[C@]23CCN(CC4CC4)[C@H](Cc4ccc(O)cc42)[C@]3(O)CC1` [Example 214, 1-((5aS,6R,11bR)-14-(cyclopropylmethyl)-5a,10-dihydroxy-1,2,5,5a,6,7-hexahydro-6,11b-(epiminoethano)naphtho[1,2-d]azepin-3(4H)-yl)-2-(5-hydroxy-1H-pyrazol-1-yl)ethan-1-one] displayed an EC50 of 130 pM.

In turn, “(5aS,6R,11bS)-14-(cyclopropylmethyl)-3-((1R,3R)-3-(4-methyl-1H-pyrazol-1-yl)cyclopentyl)-2,3,4,5,6,7-hexahydro-6,11b-(epiminoethano)naphtho[1,2-d]azepine-5a,10(1H)-diol and (5aS,6R,11bS)-14-(cyclopropylmethyl)-3-((1S,3S)-3-(4-methyl-1H-pyrazol-1-yl)cyclopentyl)-2,3,4,5,6,7-hexahydro-6,11b-(epiminoethano)naphtho[1,2-d]azepine-5a,10(1H)-diol [Example 237]” displayed an EC50 of 290 pM.

As for `Cc1cnn(CCN2CC[C@]34CCN(C[C@@H]5C[C@@H]5F)[C@H](Cc5ccc(O)cc53)[C@]4(O)CC2)c1` [Example 219, (5aS,6R,11bS)-14-(((1S,2S)-2-fluorocyclopropyl)methyl)-3-(2-(4-methyl-1H-pyrazol-1-yl)ethyl)-2,3,4,5,6,7-hexahydro-6,11b-(epiminoethano)naphtho[1,2-d]azepine-5a,10(1H)-diol], the response was half-maximal at 230 pM (EC50).

For the molecule `Oc1ccc2c(c1)[C@@]13CCN(CCn4nc(C(F)F)cc4C(F)F)CC[C@@]1(O)[C@@H](C2)N(CC1CC1)CC3` [Example 58, (5aS,6R,11bS)-3-(2-(3,5-bis(difluoromethyl)-1H-pyrazol-1-yl)ethyl)-14-(cyclopropylmethyl)-2,3,4,5,6,7-hexahydro-6,11b-(epiminoethano)naphtho[1,2-d]azepine-5a,10(1H)-diol], a half-maximal effect (EC50) was put at 140 pM.

The molecule `Oc1ccc2c(c1)[C@@]13CCN(CCn4cc(F)cn4)CC[C@@]1(O)[C@@H](C2)N(CC1CC1)CC3` [Example 184, (5aS,6R,11bS)-14-(cyclopropylmethyl)-3-(2-(4-fluoro-1H-pyrazol-1-yl)ethyl)-2,3,4,5,6,7-hexahydro-6,11b-(epiminoethano)naphtho[1,2-d]azepine-5a,10(1H)-diol] came in with an EC50 of 95 pM.
